Columns and labels:
HNDFs = experiment: Cell-cycle analysis by flow cytometry (PI) in HG-induced HNDFs; assay type: cell-based, human; details: ANM 10 μM with HG (30 mM) for 72 h; HG 71.2%, NG 46.5%
Description: HNDFs at a density of 5 × 10^5 cells in 10 cm dishes were treated with ANM or NAC in the presence or absence of HG for 72 h. Cells were collected, washed with PBS and fixed in 95% cold-ethanol, and kept at −20°C overnight. The cell pellet was then washed again with PBS and centrifuged at 1500 × g for 5 min. The pellet was re-suspended in 1 mL PI/Triton X-100 (20 μg/mL PI, 0.1% Triton X-100 and 0.2 mg/mL RNAse) and incubated on ice for 30 min. The total cellular DNA content was analyzed with a flow cytometer (Beckman Coulter FC500). Data were acquired and analyzed using CXP software (Beckman Coulter).

[1] = tested on: SIRT-1, SIRT-3 and SIRT-6 mRNA; experiment: Q-PCR of SIRT genes in HNDFs; assay type: cell-based, human; details: ANM 10 μM, 72 h
Description: Total RNA was extracted from cultured HNDFs using Trizol Reagent (Thermo Fisher Scientific). Q-PCR analysis was performed using Applied Biosystems detection instruments and software. Forward and reverse primers (10 μM), and the working solution SYBR green, was used as a PCR master mix, under the following conditions: 96°C for 3 minutes followed by 40 cycles at 96°C for 1 minute, 50°C for 30 seconds and 72°C for 90 seconds. GAPDH was used as an internal standard to control for variability in amplification because of differences in starting mRNA concentrations. The copy number of each transcript was calculated as the relative copy number normalized by GAPDH copy number.

C=C(CCC(C)C1CCC2C3=C(C(=O)C(O)C21C)C1(C)CCC(O)C(C)C1CC3)C(C)C(=O)O (centres unmarked) [ANM, antcin M]
cell population in the G0/G1 phase (HNDFs): 49.5% | SIRT-1, SIRT-3 and SIRT-6 levels compared to the control group [1]: significantly increased

Reference: publication PMC5325331, “A steroid like phytochemical Antcin M is an anti-aging reagent that eliminates hyperglycemia-accelerated premature senescence in dermal fibroblasts by direct activation of Nrf2 and SIRT-1” (Oncotarget, 2016)
